Series [1] deals with CD-1 mice. Briefly: Paclitaxel-induced mechanical allodynia, Von Frey test. The series is classed as in vivo. The procedure: Procedure for assessment of mechanical allodynia. To assess mechanical allodynia, paw withdrawal thresholds were measured using a Dynamic Plantar Aesthesiometer (Ugo Basile, Italy). The electronic Von Frey device employs a single nonflexible filament which applies a progressively increasing force (from 0 to 10 g) against the plantar surface of the hind paw over a 20 s period. […] The day of the experiment, mice were placed individually in test compartments (9×9×14 cm) with a wire mesh bottom and allowed to acclimatize to them for 2 h. After habituation, each mouse was tested three times alternately in each hind paw.

The test system of series [2] is CD-1 mice. Nature of the series: Paclitaxel-induced cold allodynia, acetone test.
Method: Experiments were performed in CD-1 mice (Charles River, U.S.A.) with at least n=10/experimental group. […] Control animals received the same volume of solvent (a mixture of ethanol and cremophor EL)
Mechanical allodynia was evaluated with an electronically driven Von Frey filament (Dynamic Plantar Aesthesiometer, Ugo Basile, Varese, Italy) as previously described (Nieto et al., 2008), and cold allodynia was evaluated using the acetone drop method (Polomano et al., 2001; Smith et al., 2004).
In addition, in order to study the influence of the sigma 1 receptor in this process the difference in development of allodynia was determined using wild-type mice and sigma 1-receptor knock-out-mice.
Therefore, the cumulative dose was 10 mg/kg per mouse.
BD-1063 was dissolved in normal saline just before administration and applied at doses of 8, 16, 32 or 64 mg/kg subcutaneously.
The response of the animals to the different nociceptive stimuli was tested subsequently during 2-4 weeks, depending on the test (see below), without any additional treatment. Each animal was tested only in one nociceptive model. […] Each animal received only one dose of BD-1063 and was tested in only one nociceptive model.
Procedure for assessment of cold allodynia. Cold allodynia was tested as previously described by Smith et al., 2004, by gently touching the plantar skin of the hind paws with an acetone bubble formed with a syringe connected to a thin polyethylene tube. The mice were housed and habituated for 30 min in transparent plastic boxes (7×7×13 cm) with a floor made of wire mesh. After the adaptation period, acetone was applied alternately three times to each paw at intervals of 30 s, and the duration and frequency of licking or biting were recorded. A small mirror was placed behind the chambers to allow clear observation of the paws. The time spent licking or biting the paw was recorded by a stopwatch and represented as the cumulative time of licking/biting in the six measurements. Since licking persisting more than 10 s in the experiments was very unusual, a cut-off time of 10 s was used for each trial.
Therefore, the day 10, after the habituation period to the apparatus, baseline latencies were recorded, 30 min later BD-1063 or saline was injected s.c. and paw withdrawal latencies were assessed again 30, 60, 90, 120 and 180 minutes after the injection.
A further series has as its system patients. Conditions: paclitaxel 135 mg/m^2; cited from earlier work.
Another series concerns sigma receptor. Conditions: Sigma 1 and Sigma 2; cited from earlier work.
The mark [3] stands for this setting: sigma-1-receptor knockout animals, paclitaxel 2 mg/kg i.p. once daily during 5 days.
The mark [4] stands for this setting: wild-type animals, paclitaxel 2 mg/kg i.p. once daily during 5 days.

For `CC(=O)O[C@H]1C(=O)[C@@]2(C)[C@H]([C@H](OC(=O)c3ccccc3)[C@]3(O)C[C@H](OC(=O)[C@H](O)[C@@H](NC(=O)c4ccccc4)c4ccccc4)C(C)=C1C3(C)C)[C@]1(OC(C)=O)CO[C@@H]1C[C@@H]2O` [paclitaxel, Paclitaxel], in the series on CD-1 mice [1] (paclitaxel 2 mg/kg i.p. during 5 days, vs pre-treatment and vehicle), the “mechanical allodynia (threshold force for paw withdrawal) on day 10” value is given as “induced mechanical allodynia”. In addition, the paclitaxel-induced mechanical allodynia entry in the series with CD-1 mice [1] (setting [3]) is listed as “not significantly expressed”. In addition, the “animals showing a reduction of the mechanical threshold” value with CD-1 mice [1] (treated with paclitaxel) turned out to be 96%. Also, the “time of maximal paclitaxel-induced mechanical allodynia after the first injection” value in the series with CD-1 mice [1] (setting [4]) was 10 days. Also, the “time of maximal paclitaxel-induced cold allodynia after the first injection” value with CD-1 mice [2] (control mice, paclitaxel 2 mg/kg i.p. once daily during 5 days) is 10 to 14 days; with CD-1 mice [2] (setting [4]) it was 10 days. Besides, the “animals with significantly increased time licking/biting the stimulated paw (paclitaxel-responder animals)” value in the series on CD-1 mice [2] (paclitaxel 2 mg/kg i.p. once daily during 5 days) came out at 67%. The paclitaxel-induced cold allodynia entry in the series with CD-1 mice [2] (setting [3]) is on record as “not significantly expressed”. Moreover, in the series on patients, the “patients progressing to dose-limiting neurotoxicity” value is 0%.

Regarding `CC(C)=CCN1CCC2(C)c3cc(O)ccc3CC1C2C` (stereo not shown) [pentazocine], in the series with sigma receptor, the “affinity of the sigma receptors to analgesics” value is “very high affinity”.

With `CN1CCN(CCc2ccc(Cl)c(Cl)c2)CC1` [BD-1063], the “expression of paclitaxel-induced mechanical allodynia (threshold force for paw withdrawal)” value in the series with CD-1 mice [1] (single s.c. injection on day 10, 32 or 64 mg/kg, dose-dependent, significantly different from saline) is recorded as “inhibited the expression of paclitaxel-induced mechanical allodynia”. In addition, in the series on CD-1 mice [2] (BD-1063 32 mg/kg 30 min before each paclitaxel injection (2 mg/kg i.p.), days 1 to 5, tested to day 24), the “development of paclitaxel-induced cold allodynia (duration of hind paw licking/biting)” value is “inhibited the development of cold allodynia”. For the same compound, the “expression of paclitaxel-induced cold allodynia (duration of hind paw licking/biting)” value with CD-1 mice [2] (single s.c. injection on day 10, 8, 16, 32 or 64 mg/kg, dose-dependent, significantly different from saline) is given as “inhibited the expression of paclitaxel-induced cold allodynia”.
